The term viability denotes a per cent measure of how many cells are alive, often set against a control. One may read the Kd as the concentration at which binding is half-saturated.

Values joined by “and” are separate entries in the source; they are usually repeats but may differ in a detail not shown here. Equal entries are not always repeated. Where two headings read alike, the source gives them in different places.

Data set [1] can be described thus: MTT cell viability assay, PD-L1+ cells. In kind it is cell-based. As to conditions: human, A375-hPD-L1 cells (PD-L1-transfected human melanoma A375), LP-F 0-100 μM. As to the method: (§1) Human melanoma cell line A375 (PD-L1^-) and human PD-L1 gene-transfected A375 cells (A375-hPD-L1, PD-L1^+) were cultured according to previous work.
(§2) Each well was seeded with 1 × 10^4 cancer cells in 96-well plates. LP-F dissolved in DMEM with gradient concentration (0, 12.5, 25, 50 and 100 μM) was added to each well at triple parallels, respectively, and incubated for 24 h. Then, MTT (5 mg/mL, 20 μL/well) was added and incubated for 4 h. 150 μL DMSO was added each well and shaken vigorously for 10 min to dissolve MTT crystallization. The absorbance of each sample was detected at 490 nm by ELISA, and percent cell viability was calculated based on Eq.: Percentage = sample well/reference well × 100%
A general note: Tetrazolium assays rely on reduction of a dye to a coloured formazan, in cell work by metabolically active cells.

The nature of data set [2]: MTT cell viability assay, PD-L1- cells. The note with it: human, A375 cells (human melanoma, PD-L1 negative), LP-F 0-100 μM. In kind it is cell-based. As to the method:
as §1, §2

Data set [3] is described as follows: Partition coefficient test (1-octanol/water). It counts as physicochemical. The procedure: Amounts of 0.37 MBq [^18F]LP-F, 1000 μL water and 1000 μL 1-octanol were mixed in a tube. The mixture was thoroughly shaken for 5 min. After centrifugation, 500 μL water was withdrawn from water phase and its radioactivity was measured by a gamma counter. An equal volume of 1-octanol was withdrawn from the organic phase and measured. The partition coefficient (Log P) was calculated based on Eq. Log P = Lg(Concentration of [^18F]LP-F in 1-octanol/Concentration of [^18F]LP-F in water)
Then, 500 μL water and 500 μL 1-octanol were added to the above tube to replenish the water and the organic phase. The two-phase system was shaken again. Water and the organic phase were sampled and measured and Log P was calculated again. Repeat two more times.

Data set [4] can be described thus: In vitro stability assay in PBS (radio-HPLC). In kind it is physicochemical. The note with it: PBS pH 7.4, 37 °C, 4 h. As to the method:
(§3) In order to investigate the in vitro stability of the radioactive probe, [^18F]LP-F (~14.8 MBq, 40 μL) was incubated in PBS (pH 7.4, 360 μL) at 37 °C for 4 h. [^18F]LP-F (~14.8 MBq, 40 μL) was also mixed with mouse serum (360 μL) and maintained at 37 °C for 4 h. Such PBS solution was subjected to stability analysis using radio-HPLC at 0, 1, 2 and 4 h. A 30 μL sample from the above mouse serum after protein precipitation with 30 μL acetonitrile was also subjected to stability analysis at 0, 1, 2 and 4 h.

Data set [5] in a line: In vitro stability assay in mouse serum (radio-HPLC). It counts as in vitro ADME. As to conditions: 37 °C, 4 h. The procedure: as §3
The subject of the next data set is A375-hPD-L1 cells. The experiment in a line: Cell uptake of the tracer, PD-L1+ cells. As to conditions: for cell uptake after blockade by LP-F: PD-L1+ cells blocked with 25 μM LP-F; for cell uptake: PD-L1+ cells. In kind it is cell-based, human. As to the method:
as §1
(§4) A375 cells and A375-hPD-L1 cells (1 × 10^6) were added to each tube, separately. [^18F]LP-F (37 kBq/tube) diluted in DMEM was added and incubated at 37 °C for different periods (30, 60, 120, and 240 min). PD-L1^+ cells were incubated with 100 μL 25 μM LP-F for 30 min ahead to block PD-L1^+ cells and then incubated with [^18F]LP-F (37 kBq/tube) at same conditions. After incubation and wash, the cells’ radioactivity was measured.

For the next data set, the system named is A375 cells. Briefly: Cell uptake of the tracer, PD-L1- cells. In kind it is cell-based, human. As to conditions: 4 h. The procedure:
as §1, §4

The target of the next data set is T1, PD-L1 (Homo sapiens, UniProt Q9NZQ7).
T1 construct: expressed in transfected cells; host or cells: A375 human melanoma cells transfected with the human PD-L1 gene (A375-hPD-L1)
T1 sequence (Q9NZQ7 19-290): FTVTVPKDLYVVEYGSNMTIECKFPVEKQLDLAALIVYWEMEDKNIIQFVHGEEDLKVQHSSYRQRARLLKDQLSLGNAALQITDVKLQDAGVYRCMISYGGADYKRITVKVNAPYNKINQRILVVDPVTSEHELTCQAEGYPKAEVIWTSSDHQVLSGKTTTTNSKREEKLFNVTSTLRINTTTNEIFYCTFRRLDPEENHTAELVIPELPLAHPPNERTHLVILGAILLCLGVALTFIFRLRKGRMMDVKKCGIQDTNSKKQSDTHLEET
Briefly: Saturation binding assay on PD-L1+ cells. As to conditions: PD-L1+ cell, one-site model, read-out: dissociation constant (Kd). As to the method: as §1
PD-L1^+ cells (2 × 10^5) were added to each tube and incubated with the gradient of concentration of [^18F]LP-F dissolved in DMEM (0 to 128 nM) at 37 °C for 1 h. After incubation, the cells were centrifuged and washed by PBS twice and then were measured for radioactivity by a γ counter as total bound value. For the non-specific bound value, PD-L1^+ cells (2 × 10^5) were added to each tube and incubated with LP-F (50 μM) dissolved in DMEM for half an hour in advance and then incubated with above concentrations of [^18F]LP-F. After centrifugation and wash, the radioactivity was detected. The specific binding value is obtained by subtracting non-specific bound value from total bound value. The equilibrium dissociation constant (Kd) was calculated by non-linear fit in a one-site model through specific binding values and concentrations of [^18F]LP-F.

A further data set relates to A375-hPD-L1 tumor. The experiment in a line: Micro-PET imaging, PD-L1+ tumor. It counts as in vivo, mice. An excerpt: (§5) Female BALB/c nude mice at age of 5~7 weeks were inoculated subcutaneously with 1 × 10^6 A375-hPD-L1 cells in saline at the left flank and 1 × 10^6 A375 cells at the right flank in the same mouse in order to eliminate individual differences. Animal study can be performed in accordance with the principles laid out by the ethical committee of Jiangsu Institute of Nuclear Medicine.
(§6) A375 (right)/A375-hPD-L1 (left) bilateral tumor-bearing mice (n = 3) were anesthetized and then intravenously injected with [^18F] LP-F (~7.4 MBq) dissolved in saline (200 μL). Dynamic scanning was performed for one hour. ASIPro software (Siemens) was applied to process the PET images. Dynamic images were reconstructed in OSEM3D/MAP algorithm and split into twelve frames. Quantification and analysis of region of interest (ROI) in tumors and organs were carried out.

For another data set, the system named is A375 tumor. Briefly: Micro-PET imaging, PD-L1- tumor. It counts as in vivo, mice.
From the text: as §5, §6

Data set [6] in a line: Micro-PET imaging, non-target tissues (muscle, bone). In kind it is in vivo, mice. As to conditions: up to 60 min.
From the text: as §5, §6

In the case of `Cc1c(COc2cc(OCc3cccc(C#N)c3)c(CN3CCN(CCOCCOCCOCCF)CC3)cc2Cl)cccc1-c1ccc2c(c1)OCCO2` [LP-F], the viability at 24 h in data set [1] and in data set [2] was above 90% each time.

For `Cc1c(COc2cc(OCc3cccc(C#N)c3)c(CN3CCN(CCOCCOCCOCC[18F])CC3)cc2Cl)cccc1-c1ccc2c(c1)OCCO2` [[^18F]LP-F], the logP came to 2.18 ± 0.16 in data set [3] (mean ± SD, read-out: partition coefficient (Log P)) and 2.37 in data set [3] (trials 1-3, read-out: Log P (single trial)). Also, the “Log P (single trial)” value in data set [3] (trials 1-3) is 2.08 and 2.10. Further, the “stability in PBS” value in data set [4] is given as “high stability”. For the same compound, in data set [5], the “stability in mouse serum” value is on record as “high stability”. The “cell uptake after blockade by LP-F” value in the data set on A375-hPD-L1 cells (0.5 h) amounted to 1.42 ± 0.03 %AD; in the data set with A375-hPD-L1 cells (4 h), 1.72 ± 0.02 %AD. Moreover, the cell uptake was 3.66 ± 0.20 %AD in the data set on A375-hPD-L1 cells (30 min) and 3.64 ± 0.19 %AD in the data set on A375-hPD-L1 cells (4 h). In addition, the maximum cell uptake in the data set on A375 cells was 1.41 ± 0.09 %AD. Moreover, on PD-L1, the dissociation constant Kd was 226 nM. Moreover, the “ratio of PD-L1+ tumor uptake to PD-L1- tumor uptake” value in the data set on A375-hPD-L1 tumor (50 min) is listed as 2.95 ± 0.39 times. Besides, the “tumor-to-muscle ratio (T/M)” value is 2.08 ± 0.38 in the data set with A375-hPD-L1 tumor (PD-L1+ tumor, 30 min post injection); 2.20 ± 0.29 in the data set with A375-hPD-L1 tumor (PD-L1+ tumor, 50 min); 0.82 ± 0.24 in the data set with A375 tumor (10 min); 0.75 ± 0.19 in the data set with A375 tumor (50 min); “below 1” in the data set with A375 tumor (all the time). For the same compound, the maximum tumor uptake with A375-hPD-L1 tumor (PD-L1+ tumor, 50 min) is listed as 3.53 ± 0.46 %ID/mL; with A375 tumor (60 min), 1.23 ± 0.39 %ID/mL. Further, the “activity on the bone (defluorination, in vivo stability)” value in [6] is reported as “no obvious activity on the bone”.

These data come from paper PMC9968138, “Design, Synthesis, and Biological Evaluation of a Small-Molecule PET Agent for Imaging PD-L1 Expression” (Pharmaceuticals, 2023).
